No end group written: not given here.
Key:
[1] = Effect on body weight (Example 7); type: in vivo; details: rats, days 1, 3, 5 and 7; peptide 1, 10 or 100 mg/kg/day oral, hGH 500 μg/kg/day subcutaneous; FIG. 24
Experimental: The synthetic peptide No. 1 or water for injection (control) was administered to male Crlj:WI rats at the age of four weeks by oral gavage using a gastric tube once a day for seven days (n=10 in each group). The dosage of the synthetic peptide was 1, 10 or 100 mg/kg/day. As a positive control, human growth hormone (hGH) (Norditropin, Japan Standard Commodity Classification Number: 872412) was subcutaneously administered at 500 μg/kg/day once a day for seven days. The body weight was measured on days 1, 3, 5 and 7 of administration.

[2] = Digestion test using artificial gastric juice (Example 11); type: in vitro ADME; details: 10 mg in 1 mL, pepsin, pH 3.0, 37° C., 60 and 120 minutes, HPLC; FIG. 35
Experimental: A test using artificial gastric juice was performed on the synthetic peptide No. 1. Ten milligrams of the synthetic peptide No. 1 was dissolved in 1 mL of artificial gastric juice (0.2% NaCl, 0.32% pepsin, 2.4% diluted hydrochloric acid, adjusted to pH 3.0), and the mixture was allowed to react under shaking at 37° C. Samples were collected before the reaction and 60 and 120 minutes after the reaction, and subjected to HPLC [column: ODS column (size: diameter 46 mm×500 mm, SHIMADZU); mobile phase: (A) 0.05% TFA, (B) 90% acetonitrile/0.05% TFA; gradient: 2% B (0 min), 20% B (50 min), 100% B (50.1 min), 100% B (55 min); detection: UV 215 nm] to examine whether the synthetic peptide No. 1 was decomposed by the gastric juice (resistance to the gastric juice).

[3] = Digestion test using artificial intestinal juice (Example 11); type: in vitro ADME; details: 10 mg in 1 mL, pancreatin, pH 6.8, 37° C., 120 minutes and overnight, HPLC; FIG. 36
Experimental: Ten milligrams of the synthetic peptide No. 1 was dissolved in 1 mL of artificial intestinal juice (0.34% KH2PO4, 0.36% Na2HPO4, 1% pancreatin, adjusted to pH 6.8), and the mixture was allowed to react under shaking at 37° C. Samples were collected before the reaction, 120 minutes after the reaction and after overnight reaction, and subjected to HPLC [column: ODS column (size: diameter 46 mm×500 mm, SHIMADZU); mobile phase: (A) 0.05% TFA, (B) 90% acetonitrile/0.05% TFA; gradient: 2% B (0 min), 20% B (50 min), 100% B (50.1 min), 100% B (55 min); detection: UV 215 nm] to examine whether the synthetic peptide No. 1 was decomposed by the intestinal juice (resistance to the intestinal juice).

## VNPESEEE [synthetic peptide No. 1, Val-Asn-Pro-Glu-Ser-Glu-Glu-Glu]
[1]
  change in the body weight: No significant change
[2]
  decomposition by artificial gastric juice (resistance to the gastric juice): not decomposed
[3]
  decomposition by artificial intestinal juice (resistance to the intestinal juice): totally decomposed into a peptide having the sequence of the synthetic peptide No. 2

Reference: US11241475B2, “Preventive and/or therapeutic agent for osteogenesis imperfecta and other diseases” (Pharma Foods International Co., Ltd., priority 2016, dated 2022)
